# Laboratory results reported in US20170050962A1, “IMIDAZO[1,2-A]PYRIDINES AS STIMULATORS OF SOLUBLE GUANYLATE CYCLASE FOR TREATING CARDIOVASCULAR DISEASES” (BAYER PHARMA AKTIENGESELLSCHAFT, priority 2014, published 2017).
# Tested on: recombinant guanylate cyclase reporter cell line
# Test: Effect on a recombinant guanylate cyclase reporter cell line
# Format: cell-based
# Settings: in some cases mean values for individual determinations
# Method: B-2. Effect on a Recombinant Guanylate Cyclase Reporter Cell Line
# The cellular activity of the compounds according to the invention is determined using a recombinant guanylate cyclase reporter cell line, as described in F. Wunder et al., Anal. Biochem. 339, 104-112 (2005).
# Representative MEC values (MEC=minimum effective concentration) for the compounds of the invention are shown in the table below (in some cases as mean values for individual determinations): […]
row,Structure (SMILES),MEC (minimum effective concentration) [µM]
1,"Cc1cc(OCc2c(F)cccc2F)c2nc(C)c(-c3nc(OCC(C)(C)N)n[nH]3)n2c1 [Example 6, 1-[(5-{8-[(2,6-Difluorobenzyl)oxy]-2,6-dimethylimidazo[1,2-a]pyridin-3-yl}-1H-1,2,4-triazol-3-yl)oxy]-2-methylpropan-2-amine]",3.0
2,"Cc1cc(OCc2c(F)cccc2F)c2nc(C)c(-c3ccc(OCC(C)(C)N)nc3)n2c1 [Example 2, 1-[(5-{8-[(2,6-Difluorobenzyl)oxy]-2,6-dimethylimidazo[1,2-a]pyridin-3-yl}pyridin-2-yl)oxy]-2-methylpropan-2-amine]",0.3
3,"Cc1cc(OCc2c(F)cccc2F)c2nc(C)c(-c3ccc(=O)n(CC(C)(C)N)c3)n2c1 [Example 1, 1-(2-Amino-2-methylpropyl)-5-{8-[(2,6-difluorobenzyl)oxy]-2,6-dimethylimidazo[1,2-a]pyridin-3-yl}pyridin-2(1H)-one]",1.0
4,"Cc1cc(OCc2c(F)cccc2F)c2nc(C)c(-c3ccnc(OCC(C)(C)N)c3)n2c1 [Example 4, 1-[(4-{8-[(2,6-Difluorobenzyl)oxy]-2,6-dimethylimidazo[1,2-a]pyridin-3-yl}pyridin-2-yl)oxy]-2-methylpropan-2-amine]",0.03
5,"Cc1cc(OCc2c(F)cccc2F)c2nc(C)c(-c3ccn(CC(C)(C)N)c(=O)c3)n2c1 [Example 3, 1-(2-Amino-2-methylpropyl)-4-{8-[(2,6-difluorobenzyl)oxy]-2,6-dimethylimidazo[1,2-a]pyridin-3-yl}pyridin-2(1H)-one]",1.0
6,"Cc1cc(OCc2c(F)cccc2F)c2nc(C)c(C3=CC(=NO)CC(C)(C)N3)n2c1 (stereo in doubt) [Example 5, (4E)-6-{8-[(2,6-Difluorobenzyl)oxy]-2,6-dimethylimidazo[1,2-a]pyridin-3-yl}-N-hydroxy-2,2-dimethyl-2,3-dihydropyridine-4(1H)-imine]",0.03
7,"Cc1cc(OCc2c(F)cccc2F)c2nc(C)c(-c3cc[nH]c(=O)c3)n2c1 [Example 8, 4-{8-[(2,6-Difluorobenzyl)oxy]-2,6-dimethylimidazo[1,2-a]pyridin-3-yl}pyridin-2(1H)-one]",1.0
